The subject of assay [1] is foxtail, green. Description: Test C postemergence. The format is in vivo, Setaria viridis. The following applies: for Foxtail, Green plant response rating: scale 0 to 100. The text has this: (§1) Seeds of plant species selected from blackgrass (Alopecurus myosuroides), ryegrass, Italian (Italian ryegrass, Lolium multiflorum), wheat (winter wheat, Triticum aestivum), galium (catchweed bedstraw, Galium aparine), corn (Zea mays), crabgrass, large (large crabgrass, Digitaria sanguinalis), foxtail, giant (giant foxtail, Setaria faberii), johnsongrass (Sorghum halepense), lambsquarters (Chenopodium album), morningglory (Ipomoea coccinea), nutsedge, yellow (yellow nutsedge, Cyperus esculentus), pigweed (redroot pigweed, Amaranthus retroflexus), ragweed (common ragweed, Ambrosia elation), soybean (Glycine max), barnyardgrass (Echinochloa crus-galli), oilseed rape (Brassica napus), waterhemp (common waterhemp, Amaranthus rudis), oat, wild (wild oat, Avena fatua), kochia (Kochia scoparia), Surinam grass (Brachiaria decumbens), foxtail, green (green foxtail, Setaria viridis), goosegrass (Eleusine indica), bromegrass, downy (downy bromegrass, Bromus tectorum), nightshade (eastern black nightshade, Solanum ptycanthum), cocklebur (common cocklebur, Xanthium strumarium), cupgrass, woolly (woolly cupgrass, Eriochloa villosa), bermudagrass (Cynodon dactylon), sunflower, (common oilseed sunflower, Helianthus annuus), Russian thistle (Salsola kali), and velvetleaf (Abutilon theophrasti) were planted into a blend of loam soil and sand and treated preemergence with test chemicals formulated in a non-phytotoxic solvent mixture which included a surfactant.
(§2) At the same time, plants selected from these crop and weed species and also chickweed (common chickweed, Stellaria media), canarygrass (littleseed canarygrass, Phalaris minor), and deadnettle (henbit deadnettle, Lamium amplexicaule), were planted in pots containing Redi-Earth® planting medium (Scotts Company, 14111 Scottslawn Road, Marysville, Ohio 43041) comprising spaghnum peat moss, vermiculite, wetting agent and starter nutrients and treated with postemergence applications of test chemicals formulated in the same manner. Plants ranged in height from 2 to 18 cm (1- to 4-leaf stage) for postemergence treatments. Treated plants and controls were maintained in a greenhouse for 13 to 15 days, after which time all species were compared to controls and visually evaluated. Plant response ratings, summarized in Table C, are based on a scale of 0 to 100 where 0 is no effect and 100 is complete control. A dash (-) response means no test result.

Assay [2] has as its system corn. Description: Test F postemergence. The assay is classed as in vivo, Zea mays. The following applies: scale 0 to 100. The text has this:
(§3) Seeds of plant species selected from corn (Zea mays), soybean (Glycine max), velvetleaf (Abutilon theophrasti), lambsquarters (Chenopodium album), wild poinsettia (Euphorbia heterophylla), pigweed, palmer (palmer pigweed, Amaranthus palmeri), common waterhemp (Amaranthus rudis), surinam grass (Brachiaria decumbens), large crabgrass (Digitaria sanguinalis), crabgrass, Brazil (Brazilian crabgrass, Digitaria horizontalis), fall panicum (Panicum dichotomiflorum), giant foxtail (Setaria faberii), green foxtail (Setaria viridis), goosegrass (Eleusine indica), johnsongrass (Sorghum halepense), common ragweed (Ambrosia elation), barnyardgrass (Echinochloa crus-galli), southern sandbur (Cenchrus echinatus), arrowleaf sida (Sida rhombifolia), Italian ryegrass (Lolium multiflorum), dayflower, VA (Virginia (VA) dayflower, Commelina virginica), field bindweed (Convolvulus arvensis), cocklebur (common cocklebur, Xanthium strumarium), morningglory (Ipomoea coccinea), nightshade (eastern black nightshade, Solanum ptycanthum), kochia (Kochia scoparia), yellow nutsedge (Cyperus esculentus), and hairy beggarticks (Bidens pilosa), were planted into a silt loam soil and treated preemergence with test chemicals formulated in a non-phytotoxic solvent mixture which included a surfactant.
(§4) At the same time, plants from these crop and weed species and also horseweed (Canada horseweed, Conyza canadensis), smartweed (ladysthumb smartweed, Polygonum persicaria), waterhemp_RES1, (ALS & Triazine resistant common waterhemp, Amaranthus rudis), and waterhemp_RES2, (ALS & HPPD resistant common waterhemp, Amaranthus rudis) were treated with postemergence applications of test chemicals formulated in the same manner. Plants ranged in height from 2 to 18 cm for postemergence treatments (1- to 4-leaf stage). Treated plants and controls were maintained in a greenhouse for 14 to 21 days, after which time all species were compared to controls and visually evaluated. Plant response ratings, summarized in Table F, are based on a scale of 0 to 100 where 0 is no effect and 100 is complete control. A dash (-) response means no test result.

Assay [3] deals with waterhemp_RES2 (ALS & HPPD resistant common waterhemp). Description: Test F postemergence. The assay is classed as in vivo, Amaranthus rudis. The settings on record: scale 0 to 100.
Source text: as §3, §4

In assay [4] the test system is common waterhemp. Description: Test F postemergence. The format is in vivo, Amaranthus rudis. The following applies: scale 0 to 100.
Source text: as §3, §4

For assay [5], the system named is common waterhemp. Description: Test F preemergence. The format is in vivo, Amaranthus rudis.
Source text: as §3, §4

Assay [6] relates to smartweed. Description: Test F postemergence. The assay is classed as in vivo, Polygonum persicaria. The following applies: scale 0 to 100.
Source text: as §3, §4

The test system of assay [7] is kochia. Description: Test A postemergence. The format is in vivo, Kochia scoparia. The method, boiled down: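 Pre- and postemergence greenhouse test; loam+sand; cpd in non-phytotox. solvent/surfactant; post at 1–2 leaf, 2–10 cm; visual score ~10 d, 0 = none, 100 = complete control.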
Assay [8] concerns Russian thistle. Description: Test C preemergence. The assay is classed as in vivo, Salsola kali. The settings on record: for Plant response rating (scale of 0 to 100), Russian Thistle: Preemergence, 250 g ai/ha; for Russian Thistle plant response rating / Plant response rating, Russian Thistle: preemergence; for Plant response rating, Russian Thistle: 62 g ai/ha, scale 0 to 100, 0 = no effect, 100 = complete control.
Source text: as §1, §2

Where [9] appears, read: postemergence, 250 g ai/ha, scale 0 to 100 (0 no effect, 100 complete control).
Setting [10] is: postemergence, 125 g ai/ha, scale 0 to 100, 0 no effect, 100 complete control.
Setting [11] is: Preemergence, 62 g ai/ha, scale 0 to 100.
[12] abbreviates: Preemergence, 125 g ai/ha, scale 0 to 100.
[13] abbreviates: preemergence, 16 g ai/ha, scale 0 to 100, 100 is complete control.
The mark [14] stands for this setting: Preemergence, 250 g ai/ha, scale 0 to 100.
The mark [15] stands for this setting: Postemergence, 500 g ai/ha, 0 to 100 scale (0 no effect, 100 complete control).
The mark [16] stands for this setting: postemergence, 125 g ai/ha, about 10 days, visual rating on 0 to 100 scale (0 no effect, 100 complete control).
Where [17] appears, read: postemergence, 62 g ai/ha, scale 0 to 100, 0 no effect, 100 complete control.
Setting [18] is: 31 g ai/ha, scale 0 to 100 (0 no effect, 100 complete control), 13 to 15 days.
The mark [19] stands for this setting: 125 g ai/ha, scale 0 to 100, 0 is no effect, 100 is complete control.

Values joined by “and” are separate entries in the source; they are usually repeats but may differ in a detail not shown here. Identical values can stand only once.

As to `Cc1cc(C(=O)NCC(F)(F)F)nn1Cc1ccnc(C(F)(F)F)c1` [Compound 74], the “Foxtail, Green plant response rating” value in assay [1] (Postemergence, 31 g ai/ha) is reported as 0; in assay [1] (postemergence, 62 g ai/ha), 0. For the same compound, the “Plant response rating, Foxtail, Green” value in assay [1] (setting [9]) amounted to 5; in assay [1] (setting [10]) it was 0.
Consider `CCc1cc(-c2ccc(C(F)(F)F)cc2)nn1Cc1ccnc(C(F)(F)F)c1` [Compound 110], for which the “Plant response rating, Corn” value in assay [2] (Postemergence, 16 g ai/ha) is 10; in assay [2] (Postemergence, 31 g ai/ha), 10; in assay [2] (Postemergence, 125 g ai/ha), 20; in assay [2] (postemergence, 62 g ai/ha), 10 and 15; in assay [2] (postemergence, 8 g ai/ha), 10. The “Plant response rating, Waterhemp_RES2” value in assay [3] (Postemergence, 16 g ai/ha) is 90; in assay [3] (Postemergence, 31 g ai/ha) it was 98; in assay [3] (Postemergence, 125 g ai/ha), 100; in assay [3] (postemergence, 62 g ai/ha), 60 and 98; in assay [3] (postemergence, 8 g ai/ha), 85. Further, the “Plant response rating, Common Waterhemp” value was 95 in assay [4] (Postemergence, 16 g ai/ha); 100 in assay [4] (Postemergence, 31 g ai/ha); 100 in assay [4] (Postemergence, 125 g ai/ha); 60 and 90 in assay [4] (postemergence, 62 g ai/ha); 90 in assay [4] (postemergence, 8 g ai/ha); 85 in assay [5] (Preemergence, 31 g ai/ha, scale 0 to 100). Also, the “Plant response rating, Common Waterhemp” value is 100 in assay [5] (setting [11]); 100 in assay [5] (setting [12]); 65 in assay [5] (preemergence, 8 g ai/ha, scale 0 to 100, 100 is complete control); 65 in assay [5] (setting [13]). Besides, in assay [6] (postemergence, 62 g ai/ha), the “Plant response rating, Smartweed” value is listed as 50.
Take `CCc1cc(C(=O)NCC(F)(F)F)nn1Cc1ccnc(Br)c1` [Compound 224]: the “Plant response rating, Common Waterhemp” value in assay [5] (setting [11]), in assay [5] (setting [12]) and in assay [5] (setting [14]) was 100 in each case.
Take `CCc1cc(C(=O)NOC(C)C)nn1Cc1ccnc(OC(F)F)c1` [Compound 126]: the “Kochia plant response rating” value in assay [7] (setting [15]) and in assay [7] (setting [16]) was 100 each time.
For `CCCNC(=O)c1cc(CC)n(Cc2nc(C(F)(F)F)nn2C)n1` [Compound 109], the “Plant response rating, Corn” value in assay [2] (Postemergence, 16 g ai/ha) is 0; in assay [2] (Postemergence, 31 g ai/ha) it was 0; in assay [2] (Postemergence, 125 g ai/ha), 20; in assay [2] (Postemergence, 250 g ai/ha) it was 75. In addition, the “Plant response rating, Waterhemp_RES2” value came out at 30 in assay [3] (Postemergence, 16 g ai/ha); 50 in assay [3] (Postemergence, 31 g ai/ha); 60 in assay [3] (Postemergence, 125 g ai/ha); 70 in assay [3] (Postemergence, 250 g ai/ha). Also, the “Plant response rating, Common Waterhemp” value in assay [4] (Postemergence, 16 g ai/ha) was 50; in assay [4] (Postemergence, 31 g ai/ha) it was 50; in assay [4] (Postemergence, 125 g ai/ha) it was 75; in assay [4] (Postemergence, 250 g ai/ha), 80. Further, the “Plant response rating, Smartweed” value is given as 20 in assay [6] (Postemergence, 16 g ai/ha); 50 in assay [6] (Postemergence, 31 g ai/ha); 70 in assay [6] (Postemergence, 125 g ai/ha); 80 in assay [6] (Postemergence, 250 g ai/ha).
On to `CCOc1cc(C(=O)NCC(F)(F)F)nn1Cc1ccnc(OC(F)F)c1` [Compound 128], for which the “Kochia plant response rating” value in assay [7] (setting [15]) and in assay [7] (setting [16]) was 90 throughout.
For the compound `CCCNC(=O)c1cc(OCC)n(Cc2ccnc(OC(F)F)c2)n1` [Compound 136], the “Kochia plant response rating” value in assay [7] (setting [15]) and in assay [7] (setting [16]) was 90 in each case.
Regarding `CCCNC(=O)c1cc(CC)n(Cc2cccc(OC(F)(F)F)c2)n1` [Compound 27], the “Foxtail, Green plant response rating” value in assay [1] (Postemergence, 31 g ai/ha) is 25. Moreover, the “Plant response rating, Foxtail, Green” value in assay [1] (setting [9]) turned out to be 50; in assay [1] (setting [17]), 30; in assay [1] (setting [10]), 30.
In the case of `CCONC(=O)c1cc(CC)n(Cc2cccc(OC(F)(F)F)c2)n1` [Compound 72], the “Foxtail, Green plant response rating” value in assay [1] (Postemergence, 31 g ai/ha) came to 20; in assay [1] (postemergence, 62 g ai/ha) it was 40. The “Plant response rating, Foxtail, Green” value in assay [1] (setting [9]) and in assay [1] (setting [10]) was 40 each time. Moreover, the “Plant response rating (scale of 0 to 100), Russian Thistle” value in assay [8] is on record as 95. For the same compound, the “Russian Thistle plant response rating” value in assay [8] (setting [18]) is 5; in assay [8] (setting [19]), 95. Further, the “Plant response rating, Russian Thistle” value in assay [8] (13 to 15 days) was 90.
Consider `CCc1cc(C(=O)NCC(F)(F)F)nn1Cc1cccc(OC(F)(F)F)c1` [Compound 20], for which the “Foxtail, Green plant response rating” value in assay [1] (Postemergence, 31 g ai/ha) is recorded as 20. For the same compound, the “Plant response rating, Foxtail, Green” value in assay [1] (setting [9]) is 60; in assay [1] (setting [17]), 30; in assay [1] (setting [10]), 55.
Consider `CCCc1cc(C(=O)NCC(F)(F)F)nn1Cc1ccnc(OC(F)F)c1` [Compound 127], for which the results for the “Kochia plant response rating” value in assay [7] (setting [15]) and in assay [7] (setting [16]) were 100 and 90, respectively.
Turning to `CCCc1cc(C(=O)NC2CC2)nn1Cc1ccnc(OC(F)F)c1` [Compound 205], the “Kochia plant response rating” value in assay [7] (Postemergence, 125 g ai/ha, 0 to 100 scale, 0 no effect, 100 complete control) is 90; in assay [7] (setting [15]), 90.
For `CCCc1cc(C(=O)NC(C)C)nn1Cc1cc(C(F)(F)F)nn1C` [Compound 201], the “Plant response rating, Common Waterhemp” value is given as 0 in assay [5] (Preemergence, 16 g ai/ha, scale 0 to 100); 75 in assay [5] (setting [11]); 80 in assay [5] (setting [12]); 100 in assay [5] (setting [14]); 5 in assay [5] (setting [13]).
Regarding `CCc1cc(C(=O)NOC(C)C)nn1Cc1cccc(OC(F)(F)F)c1` [Compound 70], the “Plant response rating, Foxtail, Green” value in assay [1] (setting [9]) was determined as 80; in assay [1] (setting [17]), 5; in assay [1] (setting [10]), 80. The “Plant response rating (scale of 0 to 100), Russian Thistle” value in assay [8] worked out at 80. Besides, the “Russian Thistle plant response rating” value worked out at 65 in assay [8] (setting [18]) and 75 in assay [8] (setting [19]). In addition, in assay [8] (13 to 15 days), the “Plant response rating, Russian Thistle” value was 75.
